One substance from patent US5527777A, “Peptide compounds, in particular LHRH-antagonists” (Schering Aktiengesellschaft, priority 1991, dated 1996) can be followed below.

One data set relates to Mastzell. Briefly: Mastzell test (release of histamine). In kind it is cell-based. Particulars: ED50 still not achieved at highest stated concentration.
In the next data set the test system is release of histamine. Description: in vivo observation of edematous changes on face/extremities as sign of histamine release. Also on record: species or system rats. As to conditions: 0.1 to 5 mg/kg of body weight subcutaneously. The text has this: In addition to the reduction of the testosterone value, the release of histamine is of importance. […] This in vivo test is ascribed considerably more relevance than the Mastzell test, used in many cases.

For data set [1], the system named is serum testosterone concentration. Description: testosterone-reducing potential in intact adult male rats (serum testosterone, radioimmunological). In kind it is in vivo. As to conditions: subcutaneous, one time, 0.25 mg/kg of body weight, after 24 hours. The protocol: The peptide compounds are to be used in the treatment of benign enlargements of the prostate and carcinomas of the prostate. Therefore, the testosterone-reducing potential is tested. For this purpose, generally clearly higher dosages of one and the same antagonists are required than for the induction of an inhibition of ovulation. In the test process used here, intact adult male rats are subcutaneously treated one time with the substance to be tested. The effect on the serum testosterone concentration after 24 hours is determined radioimmunologically (kit of the Biermann company).

Some results are limits rather than exact numbers.

On to “Ac--D--Nal--D--Cpa--D--Pal--Ser--Tyr--D--Cit--Leu--Ahx(Mor)--Pro--D--Ala--NH2 [Example 13]”, for which the “ED50 of the release of histamine” value in the data set on Mastzell was > 10 µg/mL. For the same substance, the “edematous changes on the face and/or on the extremities (typical of histamine release)” value with release of histamine was “occur at none of the tested dosages”. Also, in data set [1], the “inhibition of serum testosterone concentration in comparison to the control” value worked out at 26%.
